Measurements published in paper PMC7717691, “Design, synthesis, and anticonvulsant effects evaluation of nonimidazole histamine H3 receptor antagonists/inverse agonists containing triazole moiety” (Journal of Enzyme Inhibition and Medicinal Chemistry, 2020).
Where a name gives a salt, the structure may show the parent alone. Read-outs that look alike come from different tables or passages of the source.

Legend:
[1] = target: T1, H3R (Homo sapiens, UniProt Q9Y5N1); assay: CRE-driven luciferase reporter gene assay, H3R antagonistic activity; type: cell-based; details: for % Antagonism 100 nM: 100 nM compound; for % Antagonism 100 nM / % Antagonism 1 μM: HEK-293 cells expressing human H3R, mean ± SD of three experiments; for % Antagonism 1 μM: 1 μM compound; for IC50: CRE luciferase assay, HEK-293 cells, Table 1
T1 construct: expressed in transfected cells
T1 sequence (Q9Y5N1 whole entry): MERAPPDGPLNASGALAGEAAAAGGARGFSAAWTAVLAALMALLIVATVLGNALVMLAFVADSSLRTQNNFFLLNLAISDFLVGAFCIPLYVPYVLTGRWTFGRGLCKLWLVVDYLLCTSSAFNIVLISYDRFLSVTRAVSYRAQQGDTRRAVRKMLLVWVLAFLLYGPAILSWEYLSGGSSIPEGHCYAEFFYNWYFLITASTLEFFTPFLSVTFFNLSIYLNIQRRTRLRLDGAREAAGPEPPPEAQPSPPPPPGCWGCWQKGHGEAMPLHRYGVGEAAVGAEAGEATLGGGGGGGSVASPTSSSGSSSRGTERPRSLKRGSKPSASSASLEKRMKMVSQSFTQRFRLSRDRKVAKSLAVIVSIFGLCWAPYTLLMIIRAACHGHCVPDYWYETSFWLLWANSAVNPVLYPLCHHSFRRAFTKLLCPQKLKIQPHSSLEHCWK
Protocol: cAMP-response element (CRE) reporter gene assay has been extensively used to evaluate the efficacy of GPCR antagonists or agonists. […] Initially, compounds and positive controls were tested at two concentrations (100 nM and 1 µM) to obtain the preliminary investigation of their H3R antagonistic activities. In the assays, the antagonistic activities was positively correlated with the rise of the fluorescence value and indicated by the % antagonism. For the prominent compounds IC50 values were determined at additional assays.
Human thalamus poly-A RNA (Clontech, Palo Alto, CA, USA) was used to clone the hH3R gene by RT-PCR. DNA PCR primers were designed in the light of the reported human histamine receptor gene sequences (GenBank accession no.AF140538). HEK-293 cells were cultured and transfected for the luciferase assay. The detailed procedures were described in the previous publication.
Stable HEK-293 cells, which had been co-transfected with H3R and pCRE-Luc, were seeded in a 96-well plate overnight, and were grown to 90–95% confluence[43]^,[44]. Then the cells were treated with various concentrations of tested compounds in serum-free DMEM and incubated for 20 min. Cells were then stimulated with 100 nM Histamine in serum-free DMEM containing 2 µM Forskolin and incubated for 4 h at 37 °C. Firefly luciferase assay kits (Ken-real, Shanghai, China) were used to determine the luciferase activity.

[2] = system: intracellular cAMP; assay: Effect of compounds administrated alone on the level of intracellular cAMP; type: cell-based; details: for effect on the level of cAMP when treated alone: compound alone, ANOVA followed by Dunnett's test, Figure 2
Description: It is well known that H3R is a GPCR coupled with Gαi. When the ligand (histamine) binds to H3R, the dissociated Gαi inhibits the activity of adenylate cyclase (AC) and down-regulates the level of intracellular cAMP. In this CREs driven luciferase assay, when cells were pre-treated by H3R antagonists, the downregulation of cAMP would be inhibited, and the level of intracellular cAMP would regain to the initial level.

[3] = system: MES; details: cited from earlier work
[4] = system: PTZ; details: cited from earlier work
[5] = system: MES-induced convulsions; assay: MES-induced convulsions model; type: in vivo; details: mice; for protection against MES-induced convulsions (reduction or abolition of THLE): 10 mg/kg, i.p., 30 min before stimulation, vs saline group
Description: Protection for the mice was defined as the reduction or abolition of the tonic hind limb extension (THLE) in the MES model in mice.
Ear stimulation with alternating current (0.2 s, 60 Hz, 50 mA) was used to induce the seizures in mice. The reduction or abolition of the hind limb tonic extension (THLE) of mice was considered protective against the MES-induced seizures[29]^,[48]. […]

[6] = system: MES; details: cited from earlier work; remark: listed apart in the source

SMILES	melting point [°C]	% Antagonism 100 nM [1] [%]	% Antagonism 1 μM [1] [%]	protection against MES-induced convulsions (reduction or abolition of THLE) [5]	also measured
c1cc(-n2cnnc2)ccc1OCCCCCN1CCCCC1 (as salt: HCl) [Compound 3q, 1-(5-(4-(4H-1,2,4-triazol-4-yl)phenoxy)pentyl)piperidine]	70 to 74				
O=C(c1ccc(OCCCc2cnc[nH]2)cc1)C1CC1 [CPX, ciproxifan, reference compound]		33.96 ± 8.59	63.05 ± 9.33		effect on the level of cAMP when treated alone [2]: no significant effects
NC(=NCc1ccc(Cl)cc1)SCCCc1cnc[nH]1 [Clobenpropit]					MES (mice) ([3]; 0.3, 1, 3 mg/kg i.p.): protection; PTZ (rats) ([4]; 10 μg & 20 μg icv): protection
CCN(CC)CCCOc1ccc(-n2cnnc2)cc1.Cl [Compound 3a, 3-(4-(4H-1,2,4-triazol-4-yl)phenoxy)-N,N-diethylpropan-1-amine hydrochloride]	105 to 106	49.85 ± 9.73	223.76 ± 7.56	moderate protection	IC50 [1]: 2990 nM; effect on the level of cAMP when treated alone [2]: no significant effects
CCCN(CCC)CCCOc1ccc(-n2cnnc2)cc1.Cl [Compound 3b, 3-(4-(4H-1,2,4-triazol-4-yl)phenoxy)-N,N-dipropylpropan-1-amine hydrochloride]	180 to 183	13.24 ± 4.83	15.02 ± 4.03		
Cl.c1cc(-n2cnnc2)ccc1OCCCN1CCCC1 [Compound 3c, 4-(4-(3-(pyrrolidin-1-yl)propoxy)phenyl)-4H-1,2,4-triazole hydrochloride]	120 to 122	32.23 ± 5.69	143.98 ± 16.16	did not achieve a significant difference from the control group	IC50 [1]: 553 nM; effect on the level of cAMP when treated alone [2]: no significant effects
Cl.Cl.c1cc(-n2cnnc2)ccc1OCCCN1CCNCC1 [Compound 3d, 1-(3-(4-(4H-1,2,4-triazol-4-yl)phenoxy)propyl)piperazine dihydrochloride]	146 to 148	11.33 ± 5.86	79.4 ± 4.50		
CN1CCN(CCCOc2ccc(-n3cnnc3)cc2)CC1.Cl [Compound 3e, 1-(3-(4-(4H-1,2,4-triazol-4-yl)phenoxy)propyl)-4-methylpiperazine hydrochloride]	220 to 223	9.86 ± 0.87	21.78 ± 3.04		
c1ccc(N2CCN(CCCOc3ccc(-n4cnnc4)cc3)CC2)cc1 [Compound 3f, 1-(3-(4-(4H-1,2,4-triazol-4-yl)phenoxy)propyl)-4-phenylpiperazine]	172 to 174	9.96 ± 10.9	24.41 ± 6.30		
Cl.c1cc(-n2cnnc2)ccc1OCCCN1CCOCC1 [Compound 3g, 4-(3-(4-(4H-1,2,4-triazol-4-yl)phenoxy)propyl)morpholine hydrochloride]	237 to 239	−0.76 ± 4.87	20.24 ± 7.56	moderate protection	
c1cc(-n2cnnc2)ccc1OCCCN1CCCCC1 [Compound 3h, 1–(3-(4-(4H-1,2,4-triazol-4-yl)phenoxy)propyl)piperidine]	249 to 252	10.56 ± 7.94	239.79 ± 3.17	moderate protection	IC50 [1]: 127 nM; effect on the level of cAMP when treated alone [2]: no significant effects
c1ccc(C2CCN(CCCOc3ccc(-n4cnnc4)cc3)CC2)cc1 [Compound 3i, 1-(3-(4-(4H-1,2,4-triazol-4-yl)phenoxy)propyl)-4-phenylpiperidine]	124 to 126	5.19 ± 2.06	16.45 ± 1.90		
NC(=O)C1CCN(CCCOc2ccc(-n3cnnc3)cc2)CC1 [Compound 3j, 1-(3-(4-(4H-1,2,4-triazol-4-yl)phenoxy)propyl)piperidine-4-carboxamide]	196 to 198	−4.2 ± 3.11	6.12 ± 2.05		
Cc1nncn1-c1ccc(OCCCN2CCCCC2)cc1.Cl [Compound 3k, 1-(3-(4–(3-methyl-4H-1,2,4-triazol-4-yl)phenoxy)propyl)piperidine hydrochloride]	240 to 242	133.91 ± 8.91	183.54 ± 14.41	did not achieve a significant difference from the control group	IC50 [1]: 21 nM; effect on the level of cAMP when treated alone [2]: no significant effects
c1ccc(-c2nncn2-c2ccc(OCCCN3CCCCC3)cc2)cc1 [Compound 3l, 1-(3-(4-(3-phenyl-4H-1,2,4-triazol-4-yl)phenoxy)propyl)piperidine]	88 to 90	148.62 ± 4.43	169.04 ± 15.04	moderate protection	IC50 [1]: 7.81 nM; effect on the level of cAMP when treated alone [2]: no significant effects
c1ccc(-c2ccc(-c3nncn3-c3ccc(OCCCN4CCCCC4)cc3)cc2)cc1 [Compound 3n, 1-(3-(4-(3-([1,1’-biphenyl]-4-yl)-4H-1,2,4-triazol-4-yl)phenoxy)propyl)piperidine]	66 to 68	1.03 ± 7.79	3.36 ± 1.27		
Cl.c1cc(-n2cnnc2)ccc1OCCN1CCCCC1 [Compound 3o, 1-(2-(4–(4H-1,2,4-triazol-4-yl)phenoxy)ethyl)piperidine hydrochloride]	85 to 87	45.04 ± 3.61	94.20 ± 2.60	moderate protection	IC50 [1]: 250 nM
Cl.c1cc(-n2cnnc2)ccc1OCCCCN1CCCCC1 [Compound 3p, 1-(4–(4-(4H-1,2,4-triazol-4-yl)phenoxy)butyl)piperidine hydrochloride]	80 to 82	25.00 ± 3.95	90.52 ± 5.71	did not achieve a significant difference from the control group	IC50 [1]: 3440 nM
c1cc(-n2cnnc2)ccc1OCCCCCN1CCCCC1 [Compound 3q, 1-(5-(4-(4H-1,2,4-triazol-4-yl)phenoxy)pentyl)piperidine]		1.88 ± 12.38	2.39 ± 13.85		
CCC(C)(C)c1ccc(OCCCN2CCCCC2)cc1 [DL-77]					MES (rats) ([6]; 5, 10, 15 mg/kg): protection
O=C1NC(c2ccccc2)(c2ccccc2)C(=O)N1CCCN1CCCCC1 [H3R ligand I]					PTZ (rats) ([4]; 10 mg/kg i.p.): protection; MES (rats) ([6]; 1 mg/kg i.p.): protection
NCCc1c[nH]cn1 [Histamine]					effect on the level of cAMP when treated alone [2]: no significant effects
CCCCCCOc1ccc(-n2cnnc2)cc1 [III]					MES (mice) ([3]; 10 mg/kg i.p.): protection
C[C@@H](N)Cc1cnc[nH]1 [RAMH, R-(α)-methyl-histamine, reference compound]					effect on duration of THLE, administered alone ([5]; 10 mg/kg i.p. alone, p > 0.05 vs saline): did not affect the duration of THLE
C=C[C@@]1(C)CC(=O)[C@]2(O)[C@@]3(C)[C@@H](O)CCC(C)(C)[C@@H]3[C@H](O)[C@H](OC(C)=O)[C@@]2(C)O1 [forskolin, reference compound]					rise of the cAMP level compared to the control group ([2]; forskolin 2 µM): more than 200 times
